Assay results: patent US8778939B2, “Compounds” (Glaxo Group Limited, priority 2009, dated 2014)

Tests used:
Type in all cases: biochemical
[1] = target: T1, 6His-Tev-LRRK2 (1326-2527) (Homo sapiens, UniProt Q5S007); test: LRRK2 AlphaScreen protein substrate assay; settings: GST-PS-Moesin (400-577) substrate, ATP at Km; read-out: pIC50 in the LRRK2 alphascreen protein substrate assay (converted)
T1 construct: A LRRK2 cDNA encoding residues 1326-2527 was received from Dundee University; made in house; host or cells: Spodoptera frugiperda (Sf9) insect cells, baculovirus
T1 sequence (Q5S007 1326-2527): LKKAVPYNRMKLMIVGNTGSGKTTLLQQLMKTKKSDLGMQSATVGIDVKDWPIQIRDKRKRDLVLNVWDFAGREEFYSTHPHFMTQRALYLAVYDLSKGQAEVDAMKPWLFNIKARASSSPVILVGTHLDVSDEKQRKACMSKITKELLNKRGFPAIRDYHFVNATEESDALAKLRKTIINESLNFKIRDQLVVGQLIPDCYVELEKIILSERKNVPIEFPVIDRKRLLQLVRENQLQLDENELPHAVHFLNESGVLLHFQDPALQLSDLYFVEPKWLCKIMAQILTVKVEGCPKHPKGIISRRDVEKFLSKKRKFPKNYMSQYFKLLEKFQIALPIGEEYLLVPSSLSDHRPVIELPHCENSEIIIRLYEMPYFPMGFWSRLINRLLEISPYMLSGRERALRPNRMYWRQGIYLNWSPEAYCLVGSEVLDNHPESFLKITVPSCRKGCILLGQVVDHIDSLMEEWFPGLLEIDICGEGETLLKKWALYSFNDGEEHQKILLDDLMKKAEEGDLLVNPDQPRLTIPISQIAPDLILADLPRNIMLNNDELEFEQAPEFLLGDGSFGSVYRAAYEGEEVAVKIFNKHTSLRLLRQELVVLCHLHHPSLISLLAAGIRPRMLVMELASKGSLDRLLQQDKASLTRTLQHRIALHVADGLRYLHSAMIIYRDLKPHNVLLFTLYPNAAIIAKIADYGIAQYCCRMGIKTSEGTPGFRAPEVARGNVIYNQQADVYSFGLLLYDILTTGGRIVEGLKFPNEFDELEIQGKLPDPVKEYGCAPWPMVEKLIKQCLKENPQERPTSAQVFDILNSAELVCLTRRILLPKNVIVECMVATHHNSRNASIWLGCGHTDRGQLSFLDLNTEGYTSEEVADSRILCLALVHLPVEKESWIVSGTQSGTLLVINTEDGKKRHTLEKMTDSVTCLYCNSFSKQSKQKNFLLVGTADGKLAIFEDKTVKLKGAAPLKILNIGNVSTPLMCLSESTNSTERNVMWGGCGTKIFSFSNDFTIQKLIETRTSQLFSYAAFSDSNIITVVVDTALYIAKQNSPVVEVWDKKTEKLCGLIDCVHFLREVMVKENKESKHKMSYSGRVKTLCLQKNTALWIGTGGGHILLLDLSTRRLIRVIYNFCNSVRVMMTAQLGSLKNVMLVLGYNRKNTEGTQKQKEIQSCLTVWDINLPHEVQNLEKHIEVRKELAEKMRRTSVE
Experimental: a) 100 nl of a 1:4 serial dilution of test compound with a top final assay concentration of 30 μM is added to certain wells in a low volume 384 well black plate. 100 nl of DMSO is used in certain wells as controls.
b) 3 μl enzyme solution (80 nM purified recombinant 6His-Tev-LRRK2 (1326-2527) in assay buffer: 50 mM Hepes (pH 7.2), 10 mM MgCl2, 150 mM NaCl, 5% glycerol, 0.0025% triton X-100 and 1 mM DTT) is added to certain wells.
Plates are then incubated for a further 1-2 hours at room temperature (incubation time varies depending upon rate and linearity of reaction with differing enzyme batches).
d) 6 μl detection solution (1:250 dilution of AlphaLisa Protein A Acceptor beads (PerkinElmer), 1:64 dilution of AlphaLisa Gluthathione Donor beads (PerkinElmer) and 1:600 dilution (dilution determined on a batch to batch basis) of Phospho-Ezrin (Thr567)/Radixin (Thr564)/Moesin (Thr558) Polyclonal Antibody (New England Biolabs) in a buffer: 50 mM Hepes (pH 7.5), 250 mM NaCl, 60 mM EDTA, 1% PEG and 0.01% Brij 35) is added to each well. Plates are then incubated for a further 2 hours at room temperature in the dark before reading on an EnVision™ plate reader with AlphaScreen HTS turbo option module and AlphaScreen settings. Data is analysed using ActivityBase software (IDBS).

[2] = target: T1, 6His-Tev-LRRK2 (1326-2527); test: LRRK2 peptide substrate assay; settings: Biotin-LRRKtide peptide substrate, ATP at Km
In short: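 Phosphorylation of biotin-LRRKtide/moesin substrate read by time-resolved FRET (Eu anti-rabbit IgG, streptavidin-APC, phospho-ERM Thr558 antibody; 665/620 nm). The 6His-Tev-LRRK2 (1326-2527) enzyme solution was 80 nM, in 50 mM Hepes pH 7.2 with 10 mM MgCl2 and 1 mM DTT. Incubation 1-2 h at room temperature; compounds tested up to 30 μM final, 1:4 dilutions.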

[3] = target: T1, 6His-Tev-LRRK2 (1326-2527); test: LRRK2 AlphaScreen desensitised protein substrate assay
In short: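 AlphaScreen readout with phospho-Ezrin/Radixin/Moesin antibody after a 20 min room-temperature reaction at 2 mM ATP (substrate solution). Enzyme: 6His-Tev-LRRK2 (1326-2527) at 80 nM in enzyme solution, Hepes pH 7.2 buffer; test compound serially diluted 1:4 from 30 μM final.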

[4] = read-out: pIC50 in the LRRK2 peptide substrate assay (converted)
[5] = excess of ATP present (2 mM ATP), read-out: pIC50 in the LRRK2 alphascreen desensitised protein substrate assay (converted)
[6] = mean pIC50, read-out: LRRK2 peptide substrate assay (pIC50) (converted)
[7] = mean pIC50, GST-PS-Moesin (400-577) substrate, 2 mM ATP (excess of ATP present), read-out: LRRK2 alphascreen desensitised protein substrate assay (pIC50) (converted)

IC50 [1]	IC50 [2, 4]	IC50 [2, 6]	Structure (SMILES)	IC50 [3, 5]	IC50 [3, 7]
≤ 0.1 µM	≤ 0.1 µM	–	O=C(Nc1cccnc1)c1cc(Br)ccc1OCc1ccc(Cl)cc1 [Example 9, 5-Bromo-2-{[(4-chlorophenyl)methyl]oxy}-N-3-pyridinylbenzamide]	≤ 20 µM	–
≤ 0.1 µM	≤ 0.1 µM	–	N#Cc1cccc(COc2ccc(Br)cc2C(=O)Nc2cccnc2)c1 [Example 15, 5-Bromo-2-{[(3-cyanophenyl)methyl]oxy}-N-3-pyridinylbenzamide]	> 25.1 µM	–
≤ 7.94 µM	–	–	COc1ccccc1COc1ccc(Br)cc1C(=O)Nc1cccnc1 [Example 21, 5-Bromo-2-({[2-(methyloxy)phenyl]methyl}oxy)-N-3-pyridinylbenzamide]	≤ 20 µM	–
> 25.1 µM	–	–	O=C(Nc1ccccn1)c1cc(Br)ccc1OCc1ccccc1 [Example 22, 5-Bromo-2-[(phenylmethyl)oxy]-N-2-pyridinylbenzamide]	> 25.1 µM	–
≤ 7.94 µM	–	–	CCc1cccc(NC(=O)c2cc(Br)ccc2OCc2ccccc2)c1 [Example 20, 5-Bromo-N-(3-ethylphenyl)-2-[(phenylmethyl)oxy]benzamide]	> 25.1 µM	–
≤ 7.94 µM	–	–	O=C(O)Cc1cccc(NC(=O)c2cc(Cl)ccc2OCc2ccccc2)c1 [Example 25, {3-[({5-Chloro-2-[(phenylmethyl)oxy]phenyl}carbonyl)amino]phenyl}acetic acid]	–	–
≤ 7.94 µM	–	–	COc1cccc(COc2ccc(Br)cc2C(=O)Nc2cccnc2)c1 [Example 18, 5-Bromo-2-({[3-(methyloxy)phenyl]methyl}oxy)-N-3-pyridinylbenzamide]	> 25.1 µM	–
≤ 7.94 µM	–	–	CNC(=O)c1cccc(NC(=O)c2cc(Br)ccc2OCc2ccccc2)c1 [Example 27, 5-Bromo-N-{3-[(methylamino)carbonyl]phenyl}-2-[(phenylmethyl)oxy]benzamide]	> 25.1 µM	–
–	≤ 0.01 µM	–	CC(O)c1ccc(OCc2ccccc2)c(C(=O)Nc2cccnc2)c1 (centres unmarked) [Example 75, 5-(1-Hydroxyethyl)-2-[(phenylmethyl)oxy]-N-3-pyridinylbenzamide]	≤ 20 µM	–
–	≤ 0.1 µM	0.1 µM	O=C(Nc1cccnc1)c1cc(CCCN2CCOCC2)ccc1OCc1ccc(F)cc1 [Example 136, 2-{[(4-Fluorophenyl)methyl]oxy}-5-[3-(4-morpholinyl)propyl]-N-3-pyridinylbenzamide]	≤ 20 µM	0.398 µM
≤ 7.94 µM	–	–	N#Cc1ccccc1COc1ccc(Br)cc1C(=O)Nc1cccnc1 [Example 23, 5-Bromo-2-{[(2-cyanophenyl)methyl]oxy}-N-3-pyridinylbenzamide]	≤ 20 µM	–
–	≤ 0.01 µM	–	COC(=O)NCc1ccc(OCc2ccccc2)c(C(=O)Nc2cccnc2)c1 [Example 86, Methyl ({4-[(phenylmethyl)oxy]-3-[(3-pyridinylamino)carbonyl]phenyl}methyl)carbamate]	≤ 20 µM	–
–	≤ 0.1 µM	0.0398 µM	O=C(Nc1cccnc1F)c1cc(C(=O)N2CCOCC2)ccc1OCc1ccc(F)cc1 [Example 123, 2-{[(4-Fluorophenyl)methyl]oxy}-N-(2-fluoro-3-pyridinyl)-5-(4-morpholinylcarbonyl)benzamide]	≤ 20 µM	2.51 µM
–	≤ 0.1 µM	–	O=C(Nc1cccnc1)c1cc(C(=O)N2CCCC2)ccc1OCc1ccccc1 [Example 37, 2-[(Phenylmethyl)oxy]-N-3-pyridinyl-5-(1-pyrrolidinylcarbonyl)benzamide]	≤ 20 µM	–
–	≤ 0.01 µM	–	O=C(Nc1ccnnc1)c1cc(-c2ccncc2)ccc1OCc1ccc(F)cc1 [Example 89, 2-{[(4-Fluorophenyl)methyl]oxy}-N-4-pyridazinyl-5-(4-pyridinyl)benzamide]	≤ 20 µM	–
–	≤ 0.01 µM	–	CC(C)(O)c1ccc(OCc2ccccc2)c(C(=O)Nc2cccnc2)c1 [Example 76, 5-(1-Hydroxy-1-methylethyl)-2-[(phenylmethyl)oxy]-N-3-pyridinylbenzamide]	≤ 20 µM	–
–	≤ 0.01 µM	–	COC(=O)NCc1ccc(OCc2ccc(F)cc2)c(C(=O)Nc2cccnc2)c1 [Example 118, Methyl ({4-{[(4-fluorophenyl)methyl]oxy}-3-[(3-pyridinylamino)carbonyl]phenyl}methyl)carbamate]	≤ 20 µM	–
–	≤ 0.1 µM	–	CNCCOc1ccc(OCc2ccccc2)c(C(=O)Nc2cccnc2)c1 [Example 48, 5-{[2-(Methylamino)ethyl]oxy}-2-[(phenylmethyl)oxy]-N-3-pyridinylbenzamide]	≤ 20 µM	–
–	≤ 0.01 µM	–	O=C(Nc1cccnc1)c1cc(-c2ccnc(F)c2)ccc1OCc1ccccc1 [Example 104, 5-(2-Fluoro-4-pyridinyl)-2-[(phenylmethyl)oxy]-N-3-pyridinylbenzamide]	≤ 20 µM	–
–	≤ 0.01 µM	–	C[C@@H]1CN(c2ccc(OCc3ccccc3)c(C(=O)Nc3cccnc3)c2)C[C@H](C)N1C [Example 103, 2-[(Phenylmethyl)oxy]-N-3-pyridinyl-5-[(3R,5S)-3,4,5-trimethyl-1-piperazinyl]benzamide]	≤ 20 µM	–
–	≤ 0.1 µM	0.02 µM	O=C(Nc1cccnc1)c1cc(CN2CCOCC2)ccc1OCc1ccc(F)cc1 [Example 117, 2-{[(4-Fluorophenyl)methyl]oxy}-5-(4-morpholinylmethyl)-N-3-pyridinylbenzamide]	≤ 20 µM	0.794 µM
–	≤ 0.01 µM	–	Cn1cc(-c2ccc(OCc3ccc(F)cc3F)c(C(=O)Nc3cccnc3)c2)cn1 [Example 116, 2-{[(2,4-Difluorophenyl)methyl]oxy}-5-(1-methyl-1H-pyrazol-4-yl)-N-3-pyridinylbenzamide]	≤ 20 µM	–
–	≤ 0.1 µM	–	Cn1nccc1-c1ccc(OCc2ccc(F)cc2)c(C(=O)Nc2cccnc2)c1 [Example 95, 2-{[(4-Fluorophenyl)methyl]oxy}-5-(1-methyl-1H-pyrazol-5-yl)-N-3-pyridinylbenzamide]	≤ 20 µM	–
